Tests used:
Format in all cases: in vivo
Stellaria media [1] = test: Test Example 2 upland soil treatment; settings: Table 5, upland soil treatment, index 0-5
Outline: (§1)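 Score 0–5 read at day 21 (5 = ≥90% effect or phytotoxicity, 0 = <10%). Wettable powder diluted in water to 1 kg a.i./ha, applied uniformly to upland soil one day after sowing; seeds covered with ~1 cm soil.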

Digitaria adscendens [2] = test: Test Example 2 upland soil treatment; settings: Table 5, upland soil treatment, index 0-5
Outline: as §1

Chenopodium album [3] = test: Test Example 2 upland soil treatment; settings: Table 5, upland soil treatment, index 0-5
Outline: as §1

Setaria viridis [4] = test: Test Example 2 upland soil treatment; settings: Table 5, upland soil treatment, index 0-5
Outline: as §1

[5] = test system: wheat (Triticum aestivum); test: Test Example 1 upland field foliage treatment, crop phytotoxicity; settings: Table 4, upland field foliage treatment, index 0-5
Outline: (§2)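 Seeds sown in upland soil in pots and covered with about 1 cm soil; on day 14 after sowing, diluted wettable powder applied uniformly to leaves at 1 kg active ingredient per hectare. Weed control or crop phytotoxicity scored visually 21 days after application on a 0–5 scale (5 = ≥90%, 0 = <10%).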

soybean (Glycine max) [6] = test: as above; settings: Table 4, upland field foliage treatment, index 0-5
Outline: as §2

Rice (Oryza sativa) = test: Test Example 3 paddy field treatment, crop phytotoxicity; settings: paddy field treatment, transplanted rice Koshihikari, wettable powder, active ingredient 1 kg per hectare, 21st day after the dropping, index 0-5
Outline: (§3)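 Weed seeds sown in puddled paddy soil under 4 cm water, with two-leaf Koshihikari rice transplanted; 10 days later a wettable powder was applied to the water surface at 1 kg active ingredient/ha. Scored 21 days after application on a 0–5 scale (0 = <10%, 5 = ≥90% herbicidal effect or phytotoxicity).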

[7] = test system: wheat (Triticum aestivum); test: Test Example 2 upland soil treatment, crop phytotoxicity; settings: Table 5, upland soil treatment, index 0-5
Outline: as §1

soybean (Glycine max) [8] = test: as above; settings: Table 5, upland soil treatment, index 0-5
Outline: as §1

Stellaria media [9] = test: Test Example 1 upland field foliage treatment; settings: Table 4, upland field foliage treatment, index 0-5
Outline: as §2

Digitaria adscendens [10] = test: Test Example 1 upland field foliage treatment; settings: Table 4, upland field foliage treatment, index 0-5
Outline: as §2

Chenopodium album [11] = test: Test Example 1 upland field foliage treatment; settings: Table 4, upland field foliage treatment, index 0-5
Outline: as §2

Setaria viridis [12] = test: Test Example 1 upland field foliage treatment; settings: Table 4, upland field foliage treatment, index 0-5
Outline: as §2

Scirpus juncoides = test: Test Example 3 paddy field treatment; settings: paddy field treatment, wettable powder, active ingredient 1 kg per hectare, 21st day after the dropping, index 0-5
Outline: as §3

Monochoria vaginalis = test: Test Example 3 paddy field treatment; settings: paddy field treatment, wettable powder, active ingredient 1 kg per hectare, 21st day after the dropping, index 0-5
Outline: as §3

Echinochloa crusgalli = test: Test Example 3 paddy field treatment; settings: paddy field treatment, wettable powder, active ingredient 1 kg per hectare, 21st day after the dropping, index 0-5
Outline: as §3

Ammannia multiflora = test: Test Example 3 paddy field treatment; settings: paddy field treatment, wettable powder, active ingredient 1 kg per hectare, 21st day after the dropping, index 0-5
Outline: as §3

| Compound | Herbicidal activity SM: Stellaria media (Stellaria media [1]) | Herbicidal activity DA: Digitaria adscendens (Digitaria adscendens [2]) | Herbicidal activity CA: Chenopodium album (Chenopodium album [3]) | Herbicidal activity SV: Setaria viridis (Setaria viridis [4]) | Herbicidal activity (phytotoxicity) TA: Wheat (Triticum aestivum) [5] | Herbicidal activity (phytotoxicity) GM: Soybean (Glycine max) (soybean (Glycine max) [6]) | Herbicidal activity OS (phytotoxicity to rice) (Rice (Oryza sativa)) | Herbicidal activity (phytotoxicity) TA: Wheat (Triticum aestivum) [7] | Herbicidal activity (phytotoxicity) GM: Soybean (Glycine max) (soybean (Glycine max) [8]) | Herbicidal activity SM: Stellaria media (Stellaria media [9]) | Herbicidal activity DA: Digitaria adscendens (Digitaria adscendens [10]) | Herbicidal activity CA: Chenopodium album (Chenopodium album [11]) | Herbicidal activity SV: Setaria viridis (Setaria viridis [12]) | Herbicidal activity SJ (Scirpus juncoides) | Herbicidal activity MV (Monochoria vaginalis) | Herbicidal activity EC (Echinochloa crusgalli) | Herbicidal activity AM (Ammannia multiflora) |
| --- | --- | --- | --- | --- | --- | --- | --- | --- | --- | --- | --- | --- | --- | --- | --- | --- | --- |
| CNC(=O)C(Cn1cc(Cl)c(-c2ccccc2)n1)=NOC [Compound 14] | 5 (herbicidal effect of not less than 90%, or phytotoxicity of 90% or more) | 5 (herbicidal effect of not less than 90%, or phytotoxicity of 90% or more) | 5 (herbicidal effect of not less than 90%, or phytotoxicity of 90% or more) | 5 (herbicidal effect of not less than 90%, or phytotoxicity of 90% or more) | 0 (herbicidal effect of not less than 0% and less than 10%, or phytotoxicity of 0% or more and less than 10%) | 0 (herbicidal effect of not less than 0% and less than 10%, or phytotoxicity of 0% or more and less than 10%) | 1 (herbicidal effect of not less than 10% and less than 30%, or phytotoxicity of 10% or more and less than 30%) | 0 (herbicidal effect of not less than 0% and less than 10%, or phytotoxicity of 0% or more and less than 10%) | 1 (herbicidal effect of not less than 10% and less than 30%, or phytotoxicity of 10% or more and less than 30%) | 5 (herbicidal effect of not less than 90%, or phytotoxicity of 90% or more) | 5 (herbicidal effect of not less than 90%, or phytotoxicity of 90% or more) | 5 (herbicidal effect of not less than 90%, or phytotoxicity of 90% or more) | 5 (herbicidal effect of not less than 90%, or phytotoxicity of 90% or more) | 5 (herbicidal effect of not less than 90%, or phytotoxicity of 90% or more) | 5 (herbicidal effect of not less than 90%, or phytotoxicity of 90% or more) | 5 (herbicidal effect of not less than 90%, or phytotoxicity of 90% or more) | 5 (herbicidal effect of not less than 90%, or phytotoxicity of 90% or more) |
| CON=C(Cn1cc(C)c(-c2ccc(Cl)cc2)n1)C(N)=O [Compound 17] | 4 (herbicidal effect of not less than 70% and less than 90%, or phytotoxicity of 70% or more and less than 90%) | 4 (herbicidal effect of not less than 70% and less than 90%, or phytotoxicity of 70% or more and less than 90%) | 4 (herbicidal effect of not less than 70% and less than 90%, or phytotoxicity of 70% or more and less than 90%) | 4 (herbicidal effect of not less than 70% and less than 90%, or phytotoxicity of 70% or more and less than 90%) | 0 (herbicidal effect of not less than 0% and less than 10%, or phytotoxicity of 0% or more and less than 10%) | 0 (herbicidal effect of not less than 0% and less than 10%, or phytotoxicity of 0% or more and less than 10%) | 0 (herbicidal effect of not less than 0% and less than 10%, or phytotoxicity of 0% or more and less than 10%) | 0 (herbicidal effect of not less than 0% and less than 10%, or phytotoxicity of 0% or more and less than 10%) | 0 (herbicidal effect of not less than 0% and less than 10%, or phytotoxicity of 0% or more and less than 10%) | 5 (herbicidal effect of not less than 90%, or phytotoxicity of 90% or more) | 5 (herbicidal effect of not less than 90%, or phytotoxicity of 90% or more) | 5 (herbicidal effect of not less than 90%, or phytotoxicity of 90% or more) | 5 (herbicidal effect of not less than 90%, or phytotoxicity of 90% or more) | 4 (herbicidal effect of not less than 70% and less than 90%, or phytotoxicity of 70% or more and less than 90%) | 5 (herbicidal effect of not less than 90%, or phytotoxicity of 90% or more) | 4 (herbicidal effect of not less than 70% and less than 90%, or phytotoxicity of 70% or more and less than 90%) | 5 (herbicidal effect of not less than 90%, or phytotoxicity of 90% or more) |
| CNC(=O)C(Cn1cc(C)c(-c2ccccc2)n1)=NOC [Compound 18] | 5 (herbicidal effect of not less than 90%, or phytotoxicity of 90% or more) | 5 (herbicidal effect of not less than 90%, or phytotoxicity of 90% or more) | 5 (herbicidal effect of not less than 90%, or phytotoxicity of 90% or more) | 5 (herbicidal effect of not less than 90%, or phytotoxicity of 90% or more) | 0 (herbicidal effect of not less than 0% and less than 10%, or phytotoxicity of 0% or more and less than 10%) | 0 (herbicidal effect of not less than 0% and less than 10%, or phytotoxicity of 0% or more and less than 10%) | 0 (herbicidal effect of not less than 0% and less than 10%, or phytotoxicity of 0% or more and less than 10%) | 0 (herbicidal effect of not less than 0% and less than 10%, or phytotoxicity of 0% or more and less than 10%) | 0 (herbicidal effect of not less than 0% and less than 10%, or phytotoxicity of 0% or more and less than 10%) | 5 (herbicidal effect of not less than 90%, or phytotoxicity of 90% or more) | 5 (herbicidal effect of not less than 90%, or phytotoxicity of 90% or more) | 5 (herbicidal effect of not less than 90%, or phytotoxicity of 90% or more) | 5 (herbicidal effect of not less than 90%, or phytotoxicity of 90% or more) | 5 (herbicidal effect of not less than 90%, or phytotoxicity of 90% or more) | 5 (herbicidal effect of not less than 90%, or phytotoxicity of 90% or more) | 5 (herbicidal effect of not less than 90%, or phytotoxicity of 90% or more) | 5 (herbicidal effect of not less than 90%, or phytotoxicity of 90% or more) |
| CCNC(=O)C(Cn1cc(C)c(-c2ccccc2)n1)=NOC [Compound 19] | 5 (herbicidal effect of not less than 90%, or phytotoxicity of 90% or more) | 5 (herbicidal effect of not less than 90%, or phytotoxicity of 90% or more) | 5 (herbicidal effect of not less than 90%, or phytotoxicity of 90% or more) | 5 (herbicidal effect of not less than 90%, or phytotoxicity of 90% or more) | 0 (herbicidal effect of not less than 0% and less than 10%, or phytotoxicity of 0% or more and less than 10%) | 0 (herbicidal effect of not less than 0% and less than 10%, or phytotoxicity of 0% or more and less than 10%) | 0 (herbicidal effect of not less than 0% and less than 10%, or phytotoxicity of 0% or more and less than 10%) | 0 (herbicidal effect of not less than 0% and less than 10%, or phytotoxicity of 0% or more and less than 10%) | 0 (herbicidal effect of not less than 0% and less than 10%, or phytotoxicity of 0% or more and less than 10%) | 5 (herbicidal effect of not less than 90%, or phytotoxicity of 90% or more) | 5 (herbicidal effect of not less than 90%, or phytotoxicity of 90% or more) | 5 (herbicidal effect of not less than 90%, or phytotoxicity of 90% or more) | 5 (herbicidal effect of not less than 90%, or phytotoxicity of 90% or more) | 5 (herbicidal effect of not less than 90%, or phytotoxicity of 90% or more) | 5 (herbicidal effect of not less than 90%, or phytotoxicity of 90% or more) | 5 (herbicidal effect of not less than 90%, or phytotoxicity of 90% or more) | 5 (herbicidal effect of not less than 90%, or phytotoxicity of 90% or more) |
